From patent US10246453B2, “Benzenesulfonamide compounds and their use as therapeutic agents” (Xenon Pharmaceuticals Inc., priority 2016, dated 2019)
Where a name gives a salt, the structure may show the parent alone.

How the values were obtained:
NaV1.1 [1] = biological target: T1, NaV1.1 (Homo sapiens (Human), UniProt P35498); assay: Sodium Influx Assay (Flux), NaV1.1; assay type: cell-based; conditions: Trex HEK293 cells, ANG2 dye; arithmetic mean
NaV1.6 [2] = biological target: T2, NaV1.6 (Homo sapiens (Human), UniProt Q9UQD0); assay: Sodium Influx Assay (Flux), NaV1.6
NaV1.5 [3] = biological target: T3, NaV1.5 (Homo sapiens (Human), UniProt Q14524); assay: cell-based
NaV1.6 [4] = biological target: T2, NaV1.6; assay: Electrophysiological Assay (EP), patch voltage clamp, NaV1.6; assay type: cell-based; conditions: HEK-293 cells, whole-cell patch clamp, inactivated state; arithmetic mean
NaV1.5 [5] = biological target: T3, NaV1.5; assay: Sodium Influx Assay (Flux), NaV1.5; conditions: read-out: Flux NaV1.5 IC50; Trex HEK293 cells, ANG2 dye; arithmetic mean
NaV1.1 [6] = biological target: T1, NaV1.1; assay: Electrophysiological Assay (EP), patch voltage clamp, NaV1.1; assay type: cell-based; conditions: HEK-293 cells, whole-cell patch clamp, inactivated state; arithmetic mean
Method: Sodium currents were measured using the patch clamp technique in the whole-cell configuration using either a PatchXpress automated voltage clamp or manually using an Axopatch 200B (Axon Instruments) or Model 2400 (A-M systems) amplifier.
In some studies, the external sodium was reduced by equimolar replacement with choline. […] All recordings were performed at ambient temperature in a bath chamber with a volume of 150 μL. Control sodium currents were measured in 0.5% DMSO. Controls and representative compounds of the invention were applied to the recording chamber through a 4-pinch or 8-pinch valve bath perfusion system manufactured by ALA Scientific Instruments.
Series resistance compensation was applied (60-80%). […] All statistics in this study are given as mean±SD.
The membrane potential was maintained at a voltage where inactivation of the channel is complete. The voltage is then stepped back to a very negative (Vhold=−150 mV) voltage for 20 ms and then a test pulse is applied to quantify the compound block. […] The percent decrease in sodium current following wash-on of compound was taken as the percent block of sodium channels.

[7] = read-out: Flux NaV1.6 IC50, Trex HEK293 cells, ANG2 dye, arithmetic mean

T2 sequence (Q9UQD0 whole entry): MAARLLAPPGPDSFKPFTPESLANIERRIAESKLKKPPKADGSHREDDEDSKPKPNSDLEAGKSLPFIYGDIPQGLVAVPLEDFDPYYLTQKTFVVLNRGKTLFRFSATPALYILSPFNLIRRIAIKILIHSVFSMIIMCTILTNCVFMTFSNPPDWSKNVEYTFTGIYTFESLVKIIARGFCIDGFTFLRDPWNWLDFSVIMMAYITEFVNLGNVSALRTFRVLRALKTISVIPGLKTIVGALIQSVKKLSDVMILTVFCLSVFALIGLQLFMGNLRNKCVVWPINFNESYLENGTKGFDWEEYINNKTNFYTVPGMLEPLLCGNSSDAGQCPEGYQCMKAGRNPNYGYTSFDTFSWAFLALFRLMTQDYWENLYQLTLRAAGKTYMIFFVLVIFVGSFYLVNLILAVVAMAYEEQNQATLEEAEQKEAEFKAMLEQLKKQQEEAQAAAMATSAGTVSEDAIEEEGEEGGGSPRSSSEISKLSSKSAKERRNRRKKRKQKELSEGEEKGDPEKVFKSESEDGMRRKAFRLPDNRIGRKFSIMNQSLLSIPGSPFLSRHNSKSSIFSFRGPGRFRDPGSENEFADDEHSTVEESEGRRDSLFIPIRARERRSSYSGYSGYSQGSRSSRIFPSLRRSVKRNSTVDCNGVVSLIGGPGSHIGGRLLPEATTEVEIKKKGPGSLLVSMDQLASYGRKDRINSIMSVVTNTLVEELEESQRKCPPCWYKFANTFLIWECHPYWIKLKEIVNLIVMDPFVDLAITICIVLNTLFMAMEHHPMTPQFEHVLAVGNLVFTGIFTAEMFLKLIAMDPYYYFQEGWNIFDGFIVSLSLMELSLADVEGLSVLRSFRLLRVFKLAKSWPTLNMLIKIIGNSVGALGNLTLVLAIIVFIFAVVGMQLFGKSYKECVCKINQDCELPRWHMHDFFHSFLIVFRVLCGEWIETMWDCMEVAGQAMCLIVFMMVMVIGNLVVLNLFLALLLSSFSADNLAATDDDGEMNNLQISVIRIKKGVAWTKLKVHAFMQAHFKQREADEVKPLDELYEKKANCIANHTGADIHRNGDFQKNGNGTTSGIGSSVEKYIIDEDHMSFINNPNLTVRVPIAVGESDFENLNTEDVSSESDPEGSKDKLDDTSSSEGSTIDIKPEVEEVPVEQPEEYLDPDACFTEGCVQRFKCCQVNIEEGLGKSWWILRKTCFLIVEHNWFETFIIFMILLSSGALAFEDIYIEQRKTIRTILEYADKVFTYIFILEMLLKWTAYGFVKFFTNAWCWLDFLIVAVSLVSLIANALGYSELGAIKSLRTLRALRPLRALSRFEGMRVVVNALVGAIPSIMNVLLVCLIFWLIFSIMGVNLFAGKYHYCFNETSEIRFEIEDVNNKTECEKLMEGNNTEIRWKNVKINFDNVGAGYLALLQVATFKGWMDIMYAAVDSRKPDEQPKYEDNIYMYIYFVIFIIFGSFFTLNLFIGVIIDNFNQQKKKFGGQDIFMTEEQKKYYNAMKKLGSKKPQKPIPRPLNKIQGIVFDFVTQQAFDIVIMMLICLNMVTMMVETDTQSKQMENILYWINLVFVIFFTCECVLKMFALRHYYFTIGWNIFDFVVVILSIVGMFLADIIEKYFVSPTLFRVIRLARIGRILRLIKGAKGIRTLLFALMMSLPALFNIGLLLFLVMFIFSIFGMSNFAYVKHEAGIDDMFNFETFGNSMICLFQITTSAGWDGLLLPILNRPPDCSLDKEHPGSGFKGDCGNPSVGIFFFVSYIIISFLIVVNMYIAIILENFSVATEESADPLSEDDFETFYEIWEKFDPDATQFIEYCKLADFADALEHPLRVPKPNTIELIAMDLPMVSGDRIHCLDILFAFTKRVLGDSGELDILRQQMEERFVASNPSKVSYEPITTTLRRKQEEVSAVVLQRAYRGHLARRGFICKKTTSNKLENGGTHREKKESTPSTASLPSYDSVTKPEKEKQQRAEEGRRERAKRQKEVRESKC
T3 sequence (Q14524 other isoform, or with tags, fused parts or gaps): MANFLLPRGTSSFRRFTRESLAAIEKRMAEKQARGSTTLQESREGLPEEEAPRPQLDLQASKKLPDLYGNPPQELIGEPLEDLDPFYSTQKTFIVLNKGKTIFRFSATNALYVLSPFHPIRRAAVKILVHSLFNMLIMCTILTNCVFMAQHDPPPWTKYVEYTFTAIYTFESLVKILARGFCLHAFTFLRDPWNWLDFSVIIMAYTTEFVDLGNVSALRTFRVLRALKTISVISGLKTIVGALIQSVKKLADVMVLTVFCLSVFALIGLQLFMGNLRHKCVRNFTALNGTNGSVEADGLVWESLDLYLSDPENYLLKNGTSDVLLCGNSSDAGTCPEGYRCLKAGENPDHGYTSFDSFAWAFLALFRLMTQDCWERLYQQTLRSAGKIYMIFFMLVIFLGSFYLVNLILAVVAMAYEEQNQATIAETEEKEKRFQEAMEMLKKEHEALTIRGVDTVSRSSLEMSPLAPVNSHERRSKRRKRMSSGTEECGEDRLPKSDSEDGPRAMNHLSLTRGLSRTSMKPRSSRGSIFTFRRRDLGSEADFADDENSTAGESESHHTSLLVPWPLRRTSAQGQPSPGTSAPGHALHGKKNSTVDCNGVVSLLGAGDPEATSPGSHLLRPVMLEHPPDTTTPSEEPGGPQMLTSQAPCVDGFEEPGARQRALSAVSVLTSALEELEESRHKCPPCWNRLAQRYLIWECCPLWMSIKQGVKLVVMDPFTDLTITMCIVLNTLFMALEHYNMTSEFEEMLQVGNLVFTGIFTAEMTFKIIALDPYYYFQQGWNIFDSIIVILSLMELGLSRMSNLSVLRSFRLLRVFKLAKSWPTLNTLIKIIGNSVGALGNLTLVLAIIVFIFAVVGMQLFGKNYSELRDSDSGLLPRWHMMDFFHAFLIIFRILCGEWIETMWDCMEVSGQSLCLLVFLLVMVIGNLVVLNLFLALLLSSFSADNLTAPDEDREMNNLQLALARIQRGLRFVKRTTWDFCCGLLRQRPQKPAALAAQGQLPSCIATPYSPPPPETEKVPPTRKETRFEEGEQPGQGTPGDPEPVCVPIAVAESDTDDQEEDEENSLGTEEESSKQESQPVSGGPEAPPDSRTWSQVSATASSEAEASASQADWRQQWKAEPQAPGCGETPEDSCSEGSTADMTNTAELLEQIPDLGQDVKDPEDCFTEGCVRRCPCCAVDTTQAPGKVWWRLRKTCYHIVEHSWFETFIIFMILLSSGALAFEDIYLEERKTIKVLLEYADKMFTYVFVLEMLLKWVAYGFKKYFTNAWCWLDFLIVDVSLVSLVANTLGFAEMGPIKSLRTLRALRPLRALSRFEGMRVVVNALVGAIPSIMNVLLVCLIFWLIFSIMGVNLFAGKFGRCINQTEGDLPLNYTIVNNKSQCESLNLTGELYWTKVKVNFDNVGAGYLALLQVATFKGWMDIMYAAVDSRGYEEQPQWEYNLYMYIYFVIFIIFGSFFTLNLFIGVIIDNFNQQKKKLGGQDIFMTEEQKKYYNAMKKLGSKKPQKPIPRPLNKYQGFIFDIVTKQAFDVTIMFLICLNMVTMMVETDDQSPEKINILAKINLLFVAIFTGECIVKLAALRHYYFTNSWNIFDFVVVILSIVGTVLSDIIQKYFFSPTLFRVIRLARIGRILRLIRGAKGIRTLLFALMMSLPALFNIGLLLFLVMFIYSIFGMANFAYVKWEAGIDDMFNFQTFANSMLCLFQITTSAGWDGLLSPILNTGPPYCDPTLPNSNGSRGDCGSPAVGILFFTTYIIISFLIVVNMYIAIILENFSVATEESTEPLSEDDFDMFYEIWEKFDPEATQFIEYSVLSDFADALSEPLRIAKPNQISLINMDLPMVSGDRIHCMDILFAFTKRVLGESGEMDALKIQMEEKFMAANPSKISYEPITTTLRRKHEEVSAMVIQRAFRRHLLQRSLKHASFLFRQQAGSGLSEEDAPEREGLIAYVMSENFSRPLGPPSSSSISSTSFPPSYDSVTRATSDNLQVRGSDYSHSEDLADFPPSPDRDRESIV

| IC50 (NaV1.1 [1]) [µM] | IC50 (NaV1.6 [2]) [µM] | IC50 (NaV1.6 [4]) [µM] | IC50 (NaV1.6 [2]; [7]) [µM] | IC50 (NaV1.1 [6]) [µM] | Compound | IC50 (NaV1.5 [3]) [µM] | IC50 (NaV1.5 [5]) [µM] |
| --- | --- | --- | --- | --- | --- | --- | --- |
| 11.3 | 1.61 | – | – | – | CN(c1cc(F)c(S(=O)(=O)Nc2cscn2)cc1Cl)[C@H]1CCN(Cc2cccc3cccnc23)C1 [Example 170, (S)-5-chloro-2-fluoro-4-(methyl(1-(quinolin-8-ylmethyl)-pyrrolidin-3-yl)amino)-N-(thiazol-4-yl)benzene-sulfonamide formate] | 21.2 | – |
| 6.91 | 4.89 | – | – | – | CN(c1cc(F)c(S(=O)(=O)Nc2cscn2)cc1Cl)[C@H]1CCN(CCc2ccccc2)C1 [Example 179, (S)-5-chloro-2-fluoro-4-(methyl(1-phenethylpyrrolidin-3-yl)amino)-N-(thiazol-4-yl)benzene-sulfonamide formate] | 20.4 | – |
| 7.38 | 1.87 | – | – | – | Cc1ccc(CN2CC[C@H](N(C)c3cc(F)c(S(=O)(=O)Nc4cscn4)cc3Cl)C2)s1 [Example 189, (S)-5-chloro-2-fluoro-4-(methyl(1-((5-methylthiophen-2-yl)methyl)pyrrolidin-3-yl)amino)-N-(thiazol-4-yl)benzene-sulfonamide formate] | 16.6 | – |
| 6.79 | – | 3.88 | 3.25 | > 10 | CN(c1cc(F)c(S(=O)(=O)Nc2cccc(F)n2)cc1Cl)[C@H]1CCN(Cc2ccccc2)C1 [Example 40, (S)-4-((1-benzylpyrrolidin-3-yl)(methyl)amino)-5-chloro-2-fluoro-N-(6-fluoropyridin-2-yl)benzenesulfonamide bis(trifluoroacetic acid) salt] | – | 15.8 |
| 4.24 | – | 0.15 | 0.536 | 6.55 | CN(c1ccc(S(=O)(=O)Nc2cscn2)cc1Cl)[C@H]1CCN(C(C)(C)c2ccccc2)C1 [Example 62, (S)-3-chloro-4-(methyl(1-(2-phenylpropan-2-yl)pyrrolidin-3-yl)amino)-N-(thiazol-4-yl)benzenesulfonamide] | – | 4.53 |
| 5.76 | – | 0.138 | 0.569 | > 10 | CC1(Nc2ccc(S(=O)(=O)Nc3nccs3)cc2Cl)CN(Cc2ccccc2)C1 [Example 25, 4-((1-benzyl-3-methylazetidin-3-yl)amino)-3-chloro-N-(thiazol-2-yl)benzenesulfonamide 2,2,2-trifluoroacetate] | – | 24.7 |
| 6.4 | – | 0.081 | 0.203 | 7.53 | Cc1cccc(CN2CCC(Oc3ccc(S(=O)(=O)Nc4nccs4)cc3Cl)CC2)c1 [Example 92, 3-chloro-4-(1-(3-methylbenzyl)piperidin-4-yloxy)-N-(thiazol-2-yl)benzenesulfonamide] | – | 3.64 |
| 27.9 | – | 0.278 | 0.959 | > 10 | C[C@H](c1ccccc1)N1CCC(Oc2cc(F)c(S(=O)(=O)Nc3cscn3)cc2Cl)CC1 [Example 222, (R)-5-chloro-2-fluoro-4-((1-(1-phenylethyl)piperidin-4-yl)oxy)-N-(thiazol-4-yl)benzenesulfonamide 2,2,2-trifluoroacetate] | – | 19.4 |
| 12.2 | – | 0.124 | 0.378 | > 10 | CN(c1ccc(S(=O)(=O)Nc2nccs2)cc1Cl)[C@H]1CCN(Cc2ccccc2)C1 [Example 80, (S)-4-((1-benzylpyrrolidin-3-yl)(methyl)amino)-3-chloro-N-(thiazol-2-yl)benzenesulfonamide] | – | 29.1 |
| 3.57 | – | 0.33 | 0.774 | > 10 | CN(c1cc(F)c(S(=O)(=O)Nc2cscn2)cc1Cl)[C@H]1CCN(Cc2cccc(C(F)F)c2)C1 [Example 193, (S)-5-chloro-4-((1-(3-(difluoromethyl)benzyl)-pyrrolidin-3-yl)(methyl)amino)-2-fluoro-N-(thiazol-4-yl)benzene-sulfonamide] | – | 9.02 |
| 6.64 | – | 0.748 | 1.04 | > 10 | CN(c1ccc(S(=O)(=O)Nc2cscn2)cc1Cl)[C@H]1CCN(Cc2ccccc2)C1 [Example 41, (S)-4-((1-benzylpyrrolidin-3-yl)(methyl)amino)-3-chloro-N-(thiazol-4-yl)benzenesulfonamide 2,2,2-trifluoroacetate] | – | 9.01 |
| > 30 | – | 0.056 | 0.423 | > 10 | Cc1cccc(CN2CCC(Oc3ccc(S(=O)(=O)Nc4nccs4)cc3Cl)CC2)n1 [Example 82, 3-chloro-4-(1-((6-methylpyridin-2-yl)methyl)piperidin-4-yloxy)-N-(thiazol-2-yl)benzenesulfonamide] | – | > 30 |
| > 30 | – | 0.036 | 0.029 | > 10 | Cc1cccc(CN2CC[C@H](N(C)c3ccc(S(=O)(=O)Nc4ncns4)cc3Cl)C2)c1 [Example 83, (S)-3-chloro-4-(methyl(1-(3-methylbenzyl)pyrrolidin-3-yl)amino)-N-(1,2,4-thiadiazol-5-yl)benzenesulfonamide] | – | > 30 |

| Compound | IC50 (NaV1.1 [1]) [µM] | IC50 (NaV1.6 [2]) [µM] | IC50 (NaV1.6 [4]) [µM] | IC50 (NaV1.6 [2]; [7]) [µM] | IC50 (NaV1.1 [6]) [µM] | IC50 (NaV1.5 [3]) [µM] | IC50 (NaV1.5 [5]) [µM] |
| --- | --- | --- | --- | --- | --- | --- | --- |
| C[C@]1(Nc2ccc(S(=O)(=O)Nc3cscn3)cc2Cl)CCN(Cc2ccccc2)C1 [Example 226, (S)-4-((1-benzyl-3-methylpyrrolidin-3-yl)amino)-3-chloro-N-(thiazol-4-yl)benzenesulfonamide formate] | 11.5 | – | 3.08 | 2.43 | > 10 | – | 9.04 |
| Cc1c(OC2CCN(Cc3ccccc3)CC2)cc(F)c(S(=O)(=O)Nc2cscn2)c1F [Example 106, 4-((1-benzylpiperidin-4-yl)oxy)-2,6-difluoro-3-methyl-N-(thiazol-4-yl)benzenesulfonamide formate] | 23.2 | – | 0.034 | 0.099 | > 10 | – | 20.6 |
| CN(c1cc(F)c(S(=O)(=O)Nc2cscn2)cc1Cl)[C@H]1CCN([C@@H]2CCc3ccccc32)C1 [Example 246, 5-chloro-4-(((S)-1-((R)-2,3-dihydro-1H-inden-1-yl)pyrrolidin-3-yl)(methyl)amino)-2-fluoro-N-(thiazol-4-yl)benzenesulfonamide 2,2,2-trifluoroacetate] | 8.51 | – | 1.03 | 0.629 | > 10 | – | 18.7 |
| C[C@H]1CN(Cc2ccccc2)C[C@@H]1Nc1ccc(S(=O)(=O)Nc2nccs2)cc1Cl (relative stereo) [Example 74, 4-((trans-1-benzyl-4-methylpyrrolidin-3-yl)amino)-3-chloro-N-(thiazol-2-yl)benzenesulfonamide] | 1.54 | – | 0.025 | 0.167 | 1.03 | – | 8.67 |
| Cc1cccc(CN2CC[C@H](N(C)c3cc(F)c(S(=O)(=O)Nc4cscn4)c(F)c3C)C2)n1 [Example 104, (S)-2,6-difluoro-3-methyl-4-(methyl(1-((6-methylpyridin-2-yl)methyl)pyrrolidin-3-yl)amino)-N-(thiazol-4-yl)benzenesulfonamide formate] | > 30 | – | 0.011 | 0.026 | > 10 | – | > 30 |
